Target: Apolipoprotein B-100 (Homo sapiens, UniProt P04114)
Assay: Inhibition of apolipoprotein B (apoB) secreted by human hepatoma cells (Hep G2) […]

Chain of Apolipoprotein B-100 (P04114 whole entry C1422Y): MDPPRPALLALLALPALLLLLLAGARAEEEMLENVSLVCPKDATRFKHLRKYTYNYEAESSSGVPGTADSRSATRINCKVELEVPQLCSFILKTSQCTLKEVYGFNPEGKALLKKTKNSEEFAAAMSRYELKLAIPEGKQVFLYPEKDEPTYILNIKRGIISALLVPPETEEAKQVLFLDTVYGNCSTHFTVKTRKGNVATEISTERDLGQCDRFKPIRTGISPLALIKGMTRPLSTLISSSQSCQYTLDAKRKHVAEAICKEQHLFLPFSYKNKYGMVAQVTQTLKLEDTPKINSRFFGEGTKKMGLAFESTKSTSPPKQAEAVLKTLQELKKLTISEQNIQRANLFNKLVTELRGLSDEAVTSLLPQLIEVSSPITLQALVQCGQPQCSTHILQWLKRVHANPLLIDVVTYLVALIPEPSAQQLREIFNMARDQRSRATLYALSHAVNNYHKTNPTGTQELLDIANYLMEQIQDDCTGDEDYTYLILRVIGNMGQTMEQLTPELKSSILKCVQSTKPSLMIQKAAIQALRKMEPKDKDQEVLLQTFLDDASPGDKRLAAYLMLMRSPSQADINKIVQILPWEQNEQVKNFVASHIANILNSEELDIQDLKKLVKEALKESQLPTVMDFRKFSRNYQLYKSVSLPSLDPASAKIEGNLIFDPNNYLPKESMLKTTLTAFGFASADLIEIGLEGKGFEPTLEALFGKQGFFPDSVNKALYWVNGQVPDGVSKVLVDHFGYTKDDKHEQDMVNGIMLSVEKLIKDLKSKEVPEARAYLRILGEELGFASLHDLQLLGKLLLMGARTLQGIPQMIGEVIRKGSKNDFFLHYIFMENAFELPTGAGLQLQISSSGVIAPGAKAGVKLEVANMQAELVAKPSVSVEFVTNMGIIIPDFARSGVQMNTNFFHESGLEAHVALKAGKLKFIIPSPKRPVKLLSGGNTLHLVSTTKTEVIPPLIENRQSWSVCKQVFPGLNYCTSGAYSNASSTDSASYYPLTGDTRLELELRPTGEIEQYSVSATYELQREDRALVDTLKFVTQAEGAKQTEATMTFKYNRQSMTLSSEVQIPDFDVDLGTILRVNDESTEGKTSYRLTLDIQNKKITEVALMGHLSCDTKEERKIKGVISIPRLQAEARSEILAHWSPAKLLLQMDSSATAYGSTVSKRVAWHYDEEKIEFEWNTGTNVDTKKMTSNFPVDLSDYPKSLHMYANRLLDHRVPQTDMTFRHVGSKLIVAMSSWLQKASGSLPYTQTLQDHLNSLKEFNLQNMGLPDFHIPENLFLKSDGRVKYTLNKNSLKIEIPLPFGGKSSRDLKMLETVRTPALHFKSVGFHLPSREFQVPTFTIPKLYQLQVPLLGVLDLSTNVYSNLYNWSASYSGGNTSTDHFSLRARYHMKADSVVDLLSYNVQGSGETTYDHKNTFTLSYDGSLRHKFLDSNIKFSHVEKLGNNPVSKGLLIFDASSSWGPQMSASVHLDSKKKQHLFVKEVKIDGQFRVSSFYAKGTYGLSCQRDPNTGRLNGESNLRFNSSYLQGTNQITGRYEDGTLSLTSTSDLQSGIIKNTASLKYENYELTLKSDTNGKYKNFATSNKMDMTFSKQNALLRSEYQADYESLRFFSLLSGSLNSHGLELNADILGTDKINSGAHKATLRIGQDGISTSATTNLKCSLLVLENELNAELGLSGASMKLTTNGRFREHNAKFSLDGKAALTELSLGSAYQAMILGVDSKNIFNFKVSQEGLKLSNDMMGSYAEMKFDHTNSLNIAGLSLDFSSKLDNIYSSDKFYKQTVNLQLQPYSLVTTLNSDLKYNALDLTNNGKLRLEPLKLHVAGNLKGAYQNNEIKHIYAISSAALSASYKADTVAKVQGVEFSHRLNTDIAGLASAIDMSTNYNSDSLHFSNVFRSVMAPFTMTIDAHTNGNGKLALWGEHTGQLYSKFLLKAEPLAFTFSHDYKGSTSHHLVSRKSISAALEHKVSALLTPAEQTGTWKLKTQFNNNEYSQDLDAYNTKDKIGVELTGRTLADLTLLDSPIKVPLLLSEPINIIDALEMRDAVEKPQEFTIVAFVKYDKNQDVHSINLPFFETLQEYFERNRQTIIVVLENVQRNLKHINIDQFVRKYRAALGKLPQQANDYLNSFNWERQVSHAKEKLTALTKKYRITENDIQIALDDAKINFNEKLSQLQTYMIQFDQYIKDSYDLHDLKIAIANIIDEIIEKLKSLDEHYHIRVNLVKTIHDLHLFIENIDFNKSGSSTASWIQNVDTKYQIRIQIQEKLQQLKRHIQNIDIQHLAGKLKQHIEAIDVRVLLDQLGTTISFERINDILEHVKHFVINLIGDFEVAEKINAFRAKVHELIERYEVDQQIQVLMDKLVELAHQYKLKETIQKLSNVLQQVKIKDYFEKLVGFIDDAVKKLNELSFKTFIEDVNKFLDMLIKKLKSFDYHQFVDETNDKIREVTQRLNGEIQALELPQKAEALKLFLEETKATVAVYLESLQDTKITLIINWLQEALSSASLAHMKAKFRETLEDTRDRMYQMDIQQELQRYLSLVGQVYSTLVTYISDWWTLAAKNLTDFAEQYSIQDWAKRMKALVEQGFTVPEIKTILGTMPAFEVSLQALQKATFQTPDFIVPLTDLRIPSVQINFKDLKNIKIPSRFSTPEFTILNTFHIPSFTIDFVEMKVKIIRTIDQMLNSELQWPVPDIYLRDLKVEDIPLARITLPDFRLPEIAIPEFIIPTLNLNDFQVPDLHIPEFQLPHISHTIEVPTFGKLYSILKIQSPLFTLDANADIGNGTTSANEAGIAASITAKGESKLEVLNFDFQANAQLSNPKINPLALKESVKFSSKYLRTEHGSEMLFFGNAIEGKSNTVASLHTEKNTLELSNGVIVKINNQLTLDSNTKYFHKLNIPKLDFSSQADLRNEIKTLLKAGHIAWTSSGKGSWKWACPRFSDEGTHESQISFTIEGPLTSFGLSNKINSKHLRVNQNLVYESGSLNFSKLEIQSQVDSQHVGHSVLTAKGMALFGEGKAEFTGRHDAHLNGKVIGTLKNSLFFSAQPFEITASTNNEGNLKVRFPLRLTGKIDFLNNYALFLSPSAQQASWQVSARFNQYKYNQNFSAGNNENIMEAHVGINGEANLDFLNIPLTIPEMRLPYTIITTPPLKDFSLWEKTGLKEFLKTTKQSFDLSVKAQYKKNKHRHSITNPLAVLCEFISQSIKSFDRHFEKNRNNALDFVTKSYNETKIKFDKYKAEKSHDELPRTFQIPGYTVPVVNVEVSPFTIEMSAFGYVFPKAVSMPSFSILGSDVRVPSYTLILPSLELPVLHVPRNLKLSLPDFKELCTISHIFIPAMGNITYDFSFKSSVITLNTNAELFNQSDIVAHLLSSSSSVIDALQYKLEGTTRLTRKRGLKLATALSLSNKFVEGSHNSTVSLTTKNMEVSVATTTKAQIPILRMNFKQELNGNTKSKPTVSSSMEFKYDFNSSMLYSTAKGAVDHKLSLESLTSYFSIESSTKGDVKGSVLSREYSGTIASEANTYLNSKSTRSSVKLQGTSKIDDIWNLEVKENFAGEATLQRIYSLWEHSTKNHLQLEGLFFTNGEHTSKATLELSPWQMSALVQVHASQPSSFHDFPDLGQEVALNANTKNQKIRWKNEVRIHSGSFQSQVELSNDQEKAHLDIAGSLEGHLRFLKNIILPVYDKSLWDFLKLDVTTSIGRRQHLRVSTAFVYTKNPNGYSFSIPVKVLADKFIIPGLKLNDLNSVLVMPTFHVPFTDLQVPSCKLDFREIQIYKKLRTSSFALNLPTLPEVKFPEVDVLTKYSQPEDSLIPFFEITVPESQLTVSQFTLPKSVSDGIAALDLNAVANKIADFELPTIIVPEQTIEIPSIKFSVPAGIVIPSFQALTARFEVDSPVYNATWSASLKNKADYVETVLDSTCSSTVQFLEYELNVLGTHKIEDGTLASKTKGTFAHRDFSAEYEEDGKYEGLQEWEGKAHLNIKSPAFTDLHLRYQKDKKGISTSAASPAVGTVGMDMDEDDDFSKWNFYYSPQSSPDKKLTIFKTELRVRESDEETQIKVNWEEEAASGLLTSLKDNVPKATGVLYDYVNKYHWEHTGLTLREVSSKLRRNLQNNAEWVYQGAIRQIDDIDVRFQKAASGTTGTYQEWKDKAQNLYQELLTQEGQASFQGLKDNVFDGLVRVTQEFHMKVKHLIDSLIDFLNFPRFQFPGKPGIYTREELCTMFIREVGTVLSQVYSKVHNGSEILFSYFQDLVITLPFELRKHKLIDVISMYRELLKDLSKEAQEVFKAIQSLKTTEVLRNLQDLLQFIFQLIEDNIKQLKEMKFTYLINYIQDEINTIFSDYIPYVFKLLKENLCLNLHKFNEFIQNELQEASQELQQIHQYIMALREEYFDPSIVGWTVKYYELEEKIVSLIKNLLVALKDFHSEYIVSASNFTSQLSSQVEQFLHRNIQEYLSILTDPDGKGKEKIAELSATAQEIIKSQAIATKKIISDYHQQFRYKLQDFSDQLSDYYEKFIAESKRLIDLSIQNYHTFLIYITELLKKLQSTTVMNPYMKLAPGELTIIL

SMILES | IC50 [nM]
COc1cccc(C(=O)Nc2ccc3c(c2)CC(NS(=O)(=O)c2ccccc2)C3)c1-c1ccc(Cl)cc1 (configuration not stated) [4'-Chloro-6-methoxy-biphenyl-2-carboxylic acid (2-benzenesulfonylamino-indan-5-yl)-amide] | 2
COc1cccc(C(=O)Nc2ccc3c(c2)CC(NS(C)(=O)=O)C3)c1-c1ccc(Cl)cc1 (configuration not stated) [4'-Chloro-6-methoxy-biphenyl-2-carboxylic acid (2-methanesulfonylamino-indan-5-yl)-amide] | 15
Cc1cccc(C(=O)Nc2ccc3c(c2)CC(NS(=O)(=O)c2ccccc2)C3)c1-c1ccc(Cl)cc1 (configuration not stated) [4'-Chloro-6-methyl-biphenyl-2-carboxylic acid (2-benzenesulfonylamino-indan-5-yl)-amide] | 2.4
Cc1cccc(C(=O)Nc2ccc3c(c2)CC(NS(C)(=O)=O)C3)c1-c1ccc(Cl)cc1 (configuration not stated) [4'-Chloro-6-methyl-biphenyl-2-carboxylic acid (2-methanesulfonylamino-indan-5-yl)-amide] | 6.6
Cc1cccc(C(=O)Nc2ccc3c(c2)CCC(NS(C)(=O)=O)CC3)c1-c1ccc(Cl)cc1 (configuration not stated) [4'-Chloro-6-methyl-biphenyl-2-carboxylic acid (7-methanesulfonylamino-6,7,8,9-tetrahydro-5H-benzocyclohepten-2-yl)-amide] | 5
Cc1cccc(C(=O)Nc2ccc3c(c2)CC(CNS(C)(=O)=O)C3)c1-c1ccc(Cl)cc1 (configuration not stated) [4'-Chloro-6-methyl-biphenyl-2-carboxylic acid [2-(methanesulfonylamino-methyl)-indan-5-yl]-amide] | 16
Cc1cccc(C(=O)Nc2ccc3c(c2)CC(NS(=O)(=O)c2cccs2)C3)c1-c1ccc(Cl)cc1 (configuration not stated) [4'-Chloro-6-methyl-biphenyl-2-carboxylic acid [2-(thiophene-2-sulfonylamino)-indan-5-yl]-amide] | 3
Cc1cccc(C(=O)Nc2ccc3c(c2)CC(NS(=O)(=O)c2ccccc2)C3)c1-c1ccc(C#N)cc1 (configuration not stated) [4'-Cyano-6-methyl-biphenyl-2-carboxylic acid (2-benzenesulfonylamino-indan-5-yl)-amide] | 5.5
Cc1cccc(C(=O)Nc2ccc3c(c2)CC(NS(=O)(=O)c2ccccc2)C3)c1-c1ccc(F)cc1 (configuration not stated) [4'-Fluoro-6-methyl-biphenyl-2-carboxylic acid (2-benzenesulfonylamino-indan-5-yl)-amide] | 1.2
Cc1cccc(C(=O)Nc2ccc3c(c2)CC(NS(C)(=O)=O)C3)c1-c1ccc(F)cc1 (configuration not stated) [4'-Fluoro-6-methyl-biphenyl-2-carboxylic acid (2-methanesulfonylamino-indan-5-yl)-amide] | 8.3
Cc1cccc(C(=O)Nc2ccc3c(c2)CC(NS(=O)(=O)c2cccs2)C3)c1-c1ccc(F)cc1 (configuration not stated) [4'-Fluoro-6-methyl-biphenyl-2-carboxylic acid [2-(thiophene-2-sulfonylamino)-indan-5-yl]-amide] | 1.4
CC(=O)NC1Cc2ccc(NC(=O)c3ccccc3-c3ccc(C(F)(F)F)cc3)cc2C1 (configuration not stated) [4'-Trifluoromethyl-biphenyl-2-carboxylic acid (2-acetylamino-indan-5-yl)-amide] | 120
O=C(Nc1ccc2c(c1)CC(NS(=O)(=O)c1ccccc1)C2)c1ccccc1-c1ccc(C(F)(F)F)cc1 (configuration not stated) [4'-Trifluoromethyl-biphenyl-2-carboxylic acid (2-benzenesulfonylamino-indan-5-yl)-amide] | 1.3
O=C(Nc1ccc2c(c1)C[C@@H](NS(=O)(=O)c1ccccc1)C2)c1ccccc1-c1ccc(C(F)(F)F)cc1 [4'-Trifluoromethyl-biphenyl-2-carboxylic acid (2-benzenesulfonylamino-indan-5-yl)-amide] | 42
O=C(NC1Cc2ccc(NC(=O)c3ccccc3-c3ccc(C(F)(F)F)cc3)cc2C1)c1ccccc1 (configuration not stated) [4'-Trifluoromethyl-biphenyl-2-carboxylic acid (2-benzoylamino-indan-5-yl)-amide] | 270
O=C(Nc1ccc2c(c1)CC(NCc1ccccc1)C2)c1ccccc1-c1ccc(C(F)(F)F)cc1 (configuration not stated) [4'-Trifluoromethyl-biphenyl-2-carboxylic acid (2-benzylamino-indan-5-yl)-amide] | 340
CS(=O)(=O)NC1Cc2ccc(NC(=O)c3ccccc3-c3ccc(C(F)(F)F)cc3)cc2C1 (configuration not stated) [4'-Trifluoromethyl-biphenyl-2-carboxylic acid (2-methanesulfonylamino-indan-5-yl)-amide] | 60
CN(C)C(=O)NC1Cc2ccc(NC(=O)c3ccccc3-c3ccc(C(F)(F)F)cc3)cc2C1 (configuration not stated) [4'-Trifluoromethyl-biphenyl-2-carboxylic acid [2-(3,3-dimethyl-ureido)-indan-5-yl]-amide] | 120
Cc1cc(C)c(-c2ccc(C(F)(F)F)cc2)c(C(=O)Nc2ccc3c(c2)C[C@@H](NS(=O)(=O)c2cccs2)C3)c1 [4,6-Dimethyl-4'-trifluoromethyl-biphenyl-2-carboxylic acid [2-(thiophene-2-sulfonylamino)-indan-5-yl]-amide] | 2.6
Cc1cc(C)c(-c2ccc(C(F)(F)F)cc2)c(C(=O)Nc2ccc3c(c2)C[C@H](NS(=O)(=O)c2cccs2)C3)c1 [4,6-Dimethyl-4'-trifluoromethyl-biphenyl-2-carboxylic acid [2-(thiophene-2-sulfonylamino)-indan-5-yl]-amide] | 1
COC(=O)N1CCN([C@@H]2Cc3ccc(NC(=O)c4cccc(C)c4-c4ccc(C(F)(F)F)cc4)cc3C2)CC1 [4-{5-[(6-Methyl-4'-trifluoromethyl-biphenyl-2-carbonyl)-amino]-indan-2-yl}-piperazine-1-carboxylic acid methyl ester] | 43
COC(=O)N1CCN([C@H]2Cc3ccc(NC(=O)c4cccc(C)c4-c4ccc(C(F)(F)F)cc4)cc3C2)CC1 [4-{5-[(6-Methyl-4'-trifluoromethyl-biphenyl-2-carbonyl)-amino]-indan-2-yl}-piperazine-1-carboxylic acid methyl ester] | 1.8
Cc1ccc(-c2c(C)cccc2C(=O)Nc2ccc3c(c2)CC(NS(=O)(=O)c2ccccc2)C3)cc1 (configuration not stated) [6,4'-Dimethyl-biphenyl-2-carboxylic acid (2-benzenesulfonylamino-indan-5-yl)-amide] | 2.5

Next, values leading:

IC50 [nM] | SMILES
8.8 | Cc1cccc(C(=O)Nc2ccc3c(c2)C[C@@H](NS(C)(=O)=O)C3)c1-c1ccc(C(F)(F)F)cc1 [6-Methyl-4'-trifluoromethyl-biphenyl-2-carboxylic acid (2-methanesulfonylamino-indan-5-yl)-amide]
1.8 | Cc1cccc(C(=O)Nc2ccc3c(c2)C[C@H](NS(C)(=O)=O)C3)c1-c1ccc(C(F)(F)F)cc1 [6-Methyl-4'-trifluoromethyl-biphenyl-2-carboxylic acid (2-methanesulfonylamino-indan-5-yl)-amide]
2.3 | Cc1cccc(C(=O)Nc2ccc3c(c2)CCC(NS(C)(=O)=O)CC3)c1-c1ccc(C(F)(F)F)cc1 (configuration not stated) [6-Methyl-4'-trifluoromethyl-biphenyl-2-carboxylic acid (7-methanesulfonylamino-6,7,8,9-tetrahydro-5H-benzocyclohepten-2-yl)-amide]
6.5 | Cc1cccc(C(=O)Nc2ccc3c(c2)CC(CNS(C)(=O)=O)C3)c1-c1ccc(C(F)(F)F)cc1 (configuration not stated) [6-Methyl-4'-trifluoromethyl-biphenyl-2-carboxylic acid [2-(methanesulfonylamino-methyl)-indan-5-yl]-amide]
0.9 | Cc1cccc(C(=O)Nc2ccc3c(c2)C[C@H](NS(=O)(=O)c2cccs2)C3)c1-c1ccc(C(F)(F)F)cc1 [6-Methyl-4'-trifluoromethyl-biphenyl-2-carboxylic acid [2-(thiophene-2-sulfonylamino)-indan-5-yl]-amide]
1.6 | Cc1cccc(C(=O)Nc2ccc3c(c2)CCC(NS(=O)(=O)c2cccs2)CC3)c1-c1ccc(C(F)(F)F)cc1 (configuration not stated) [6-Methyl-4'-trifluoromethyl-biphenyl-2-carboxylic acid [7-(thiophene-2-sulfonylamino)-6,7,8,9-tetrahydro-5H-benzocyclohepten-2-yl]-amide]
1.9 | Cc1cccc(C(=O)Nc2ccc3c(c2)CC(CNS(=O)(=O)c2cccs2)C3)c1-c1ccc(C(F)(F)F)cc1 (configuration not stated) [6-Methyl-4'-trifluoromethyl-biphenyl-2-carboxylic acid {2-[(thiophene-2-sulfonylamino)-methyl]-indan-5-yl}-amide]
10 | COC(=O)NCCC1Cc2ccc(NC(=O)c3cccc(C)c3-c3ccc(C(F)(F)F)cc3)cc2C1 (configuration not stated) [(2-{5-[(6-Methyl-4'-trifluoromethyl-biphenyl-2-carbonyl)-amino]-indan-2-yl}-ethyl)-carbamic acid methyl ester]
6.4 | COC(=O)N[C@@H]1Cc2ccc(NC(=O)c3cccc(C)c3-c3ccc(C(F)(F)F)cc3)cc2C1 [(R)-methyl 5-(6-methyl-4'-(trifluoromethyl)biphenyl-2-ylcarboxamido)-2,3-dihydro-1H-inden-2-ylcarbamate]
1.7 | Cc1cccc(C(=O)Nc2ccc3c(c2)C[C@@H](NCc2ccccn2)C3)c1-c1ccc(C(F)(F)F)cc1 [(S)-6-methyl-N-(2-(pyridin-2-ylmethylamino)-2,3-dihydro-1H-inden-5-yl)-4'-(trifluoromethyl)biphenyl-2-carboxamide]
12 | O=C(Nc1ccc2c(c1)CC(NS(=O)(=O)c1ccccc1)C2)c1ccccc1-c1ccccc1 (configuration not stated) [Biphenyl-2-carboxylic acid (2-benzenesulfonylamino-indan-5-yl)-amide]
2 | COC(=O)NC1CCc2ccc(NC(=O)c3cccc(C)c3-c3ccc(Cl)cc3)cc2CC1 (configuration not stated) [{2-[(4'-Chloro-6-methyl-biphenyl-2-carbonyl)-amino]-6,7,8,9-tetrahydro-5H-benzocyclohepten-7-yl}-carbamic acid methyl ester]
2.4 | COC(=O)NC1CCc2ccc(NC(=O)c3cc(C)cc(C)c3-c3ccc(C(F)(F)F)cc3)cc2CC1 (configuration not stated) [{2-[(4,6-Dimethyl-4'-trifluoromethyl-biphenyl-2-carbonyl)-amino]-6,7,8,9-tetrahydro-5H-benzocyclohepten-7-yl}-carbamic acid methyl ester]
1.6 | COC(=O)NC1CCc2ccc(NC(=O)c3cccc(C)c3-c3ccc(C(F)(F)F)cc3)cc2CC1 (configuration not stated) [{2-[(6-Methyl-4'-trifluoromethyl-biphenyl-2-carbonyl)-amino]-6,7,8,9-tetrahydro-5H-benzocyclohepten-7-yl}-carbamic acid methyl ester]

— BindingDB's records for doi:10.1021/jm010294e (Novartis Institute For Biomedical Reasearch, 2001)
